The values that follow come from US20040259926A1, “3-Aryloxy and 3-heteroaryloxy substituted benzo[b]thiophenes as therapeutic agents” (priority 2003, published 2004).

By pIC50 is commonly meant the IC50 on a negative log10 scale, so that one unit is a factor of ten.

pIC50: −log10 of the molar value.

The assay concerns the target T1, PI3Kγ (recombinant p101/p110γ protein) (Homo sapiens, UniProt P48736).
T1 construct: HA; made in house; host or cells: Spodoptera frugiperda (Sf9) cells, baculovirus co-infection
Kind of assay: PI3Kγ In Vitro Kinase Assay. The format is biochemical. The note with it: purified recombinant p101/p110γ with G protein β1/γ2 subunits; 20 μM ATP, [γ-32P-ATP]; 25 μM PIP2 lipid micelles; 20 minutes at room temperature. As for the experimental part: Spodtera frugiperda cells, grown in ESF921 media, were coinfected with baculovirus expressing a glu-tagged […] and baculovirus expressing an HA-tagged p110γ, at a 3:1 ratio of p101 baculovirus to p110γ baculovirus. Sf9 cells were grown to 1×10^7 total cells/mL in 10 L bioreactors and harvested 48-72 hours post infection. Samples of infected cells were then tested for expression of p101/p110γ PI3 kinase by immunoprecipitation and Western Blot analysis methods (see below).
To purify PI3Kγ, 4 volumes of room temperature hypotonic lysis buffer (1 mM MgCl2, 1 mM DTT, 5 mM EGTA, 1 mM Pefabloc, 0.5 μM aprotinin, 5 μM leupeptin, 2 μM pepstatin, 5 μM E64, pH 8) per gram of cell paste, was poured onto frozen cell pellets with stirring, then lysed in a nitrogen “bomb” at 400 psi (599 HC T316, Parr Instrument Co, Moline, Ill.). NaCl was added to 150 mM, and sodium cholate was added to 1% and mixed for another 45 minutes. The lysates were clarified by centrifugation for 25 minutes at 14,000 rpm. The lysates were then loaded over anti-glu-linked Protein-G Sepaharose beads (Covance Research Products, Richmond, Calif.) using 20 mL resin/50 g cell paste. The column was washed with 15 volumes of wash buffer (1 mM DTT, 0.2 mM EGTA, 1 mM Pefabloc, 0.5 μM aprotinin, 5 μM leupeptin, 2 μM pepstatin, 5 μM E64, 150 mM NaCl, 1% sodium cholate, pH 8). PI3Kγ was eluted with 6 column volumes of wash buffer that contain 100 μg/mL of a peptide that competes for binding of the glu tag. The column fractions with the eluted protein (determined by taking OD280 readings) were collected and dialyzed in 0.2 mM EGTA, 1 mM DTT, 1 mM Pefabloc, 5 μM leupeptin, 0.5% sodium cholate, 150 mM NaCl, and 50% glycerol, pH 8. The fractions were stored at −80° C. until further use.
Spodtera frugiperda cells were coinfected with baculovirus expressing a glu-tagged G protein β1 and baculovirus expressing a G protein β2 at a 1:1 ratio of glu-tagged G protein β1 baculovirus to G protein β2 baculovirus. Sf9 cells are grown in 10 L bioreactors and harvested 48-72 hours post infection. Samples of infected cells were tested for G protein β1/β2 expression by Western Blot analysis, as described below. Cell lysates were homogenized and loaded onto a column of glu-tagged beads as in Biological Example 1 and competed off the column with a glu peptide and processed as described in Biological Example 1.
The inhibitory properties of the compounds in Table 1 were assayed in an in vitro PI3K assay. In a 96-well polypropylene plate, each well was spotted with 2 μL of 50 times the desired final concentration of compound in DMSO. Purified recombinant p101/p110γ protein (0.03 μg; ˜2.7 nM) and G protein β1/γ2 subunits (0.09 μg; ˜57.7 nM) for each reaction was combined in the assay buffer (30 mM HEPES, 100 mM NaCl, 1 mM EGTA, and 1 mM DTT). ATP and [γ-^32P-ATP] (0.09 μCi) were added to this mixture so that the final ATP concentration in the reaction was 20 μM. Lipid micelles were formed by sonicating phosphatidylinositol-4,5-diphosphate (PIP2), phosphatidylethanolamine (PE), and Na-cholate in the assay buffer for 10 minutes, adding MgCl2 and incubating on ice for 20 minutes, for final concentrations of 25 μM PIP2, 300 μM PE, 0.02% Na-cholate, and 10 mM MgCl2 in the reaction. The reactions were started by adding equal volumes lipid and enzyme mixture in a total volume of 50 μL, allowed to run for 20 minutes at room temperature, and stopped with 100 μL 75 mM H3PO4. The lipid product was transferred to a glass fiber filter plate and washed with 75 mM H3PO4 several times. The presence of radioactive lipid product (PIP3) was measured by adding Wallac Optiphase mix to each well and counting in a Wallac 1450 Trilux plate reader (PerkinElmer Life Sciences Inc., Boston, Mass. 02118). The IC50 for each compound tested is reported in μM in Table 1: […]

T1 sequence (P48736 whole entry, species assumed): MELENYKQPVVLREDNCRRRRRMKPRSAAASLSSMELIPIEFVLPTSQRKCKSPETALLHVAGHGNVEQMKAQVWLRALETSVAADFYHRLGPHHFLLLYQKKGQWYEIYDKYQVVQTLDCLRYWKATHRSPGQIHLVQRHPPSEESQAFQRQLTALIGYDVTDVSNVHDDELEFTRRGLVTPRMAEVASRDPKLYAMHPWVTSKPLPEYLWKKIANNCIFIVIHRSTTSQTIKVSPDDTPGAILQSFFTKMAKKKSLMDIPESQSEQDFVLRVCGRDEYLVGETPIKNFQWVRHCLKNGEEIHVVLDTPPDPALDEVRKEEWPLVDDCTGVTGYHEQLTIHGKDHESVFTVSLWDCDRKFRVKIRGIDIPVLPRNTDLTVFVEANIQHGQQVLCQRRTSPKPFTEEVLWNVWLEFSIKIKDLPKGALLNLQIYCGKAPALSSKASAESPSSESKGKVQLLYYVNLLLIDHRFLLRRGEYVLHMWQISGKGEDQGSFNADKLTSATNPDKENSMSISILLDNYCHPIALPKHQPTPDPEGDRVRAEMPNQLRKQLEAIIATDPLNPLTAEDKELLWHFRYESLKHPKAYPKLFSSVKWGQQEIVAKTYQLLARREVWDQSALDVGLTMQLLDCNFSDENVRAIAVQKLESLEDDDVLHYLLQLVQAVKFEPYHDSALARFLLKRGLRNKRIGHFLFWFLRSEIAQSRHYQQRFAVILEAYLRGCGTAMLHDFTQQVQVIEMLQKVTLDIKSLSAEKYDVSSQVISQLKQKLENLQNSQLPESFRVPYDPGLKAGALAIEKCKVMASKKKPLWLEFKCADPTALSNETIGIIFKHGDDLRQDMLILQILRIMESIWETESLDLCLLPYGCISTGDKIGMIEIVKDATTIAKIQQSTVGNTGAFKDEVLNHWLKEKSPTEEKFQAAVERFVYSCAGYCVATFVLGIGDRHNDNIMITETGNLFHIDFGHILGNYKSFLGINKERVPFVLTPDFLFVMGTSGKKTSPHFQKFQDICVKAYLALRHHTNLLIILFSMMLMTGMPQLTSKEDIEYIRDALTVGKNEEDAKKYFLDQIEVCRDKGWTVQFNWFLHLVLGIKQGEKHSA
T1 sequence (Q8WYR1 whole entry partner, species assumed): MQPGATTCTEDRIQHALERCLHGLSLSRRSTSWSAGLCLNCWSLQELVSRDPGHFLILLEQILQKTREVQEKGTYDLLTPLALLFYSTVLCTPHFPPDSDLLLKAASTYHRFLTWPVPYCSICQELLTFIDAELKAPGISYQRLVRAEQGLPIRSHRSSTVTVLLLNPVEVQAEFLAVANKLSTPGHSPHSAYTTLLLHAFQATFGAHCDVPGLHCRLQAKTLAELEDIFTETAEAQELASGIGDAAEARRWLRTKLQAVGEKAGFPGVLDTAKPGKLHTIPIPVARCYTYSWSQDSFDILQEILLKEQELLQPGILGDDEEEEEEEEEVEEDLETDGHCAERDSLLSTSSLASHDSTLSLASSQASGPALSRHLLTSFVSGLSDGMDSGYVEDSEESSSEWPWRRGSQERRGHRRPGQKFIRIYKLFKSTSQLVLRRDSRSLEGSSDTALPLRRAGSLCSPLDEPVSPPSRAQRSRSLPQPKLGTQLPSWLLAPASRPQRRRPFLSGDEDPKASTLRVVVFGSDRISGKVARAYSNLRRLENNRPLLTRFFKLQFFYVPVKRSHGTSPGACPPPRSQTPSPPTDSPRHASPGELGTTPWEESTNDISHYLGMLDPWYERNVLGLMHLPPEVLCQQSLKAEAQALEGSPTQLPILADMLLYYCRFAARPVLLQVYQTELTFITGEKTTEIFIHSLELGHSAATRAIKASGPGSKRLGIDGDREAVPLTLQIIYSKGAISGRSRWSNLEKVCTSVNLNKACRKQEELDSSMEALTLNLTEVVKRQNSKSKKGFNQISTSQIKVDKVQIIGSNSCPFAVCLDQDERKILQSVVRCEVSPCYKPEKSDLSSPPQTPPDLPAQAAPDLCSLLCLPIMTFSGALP

For `COc1ccc2sc(C(=O)Nc3nn[nH]n3)c(Oc3ccc4ccccc4c3)c2c1` [Example A.10, 5-Methoxy-3-(naphthalene-2-yloxy)-benzo[b]thiophene-2-carboxylic acid (2H-tetrazol-5-yl)-amide], the pIC50 was 6.41.

Consider `CCc1cccc(Oc2c(C(=O)Nc3nn[nH]n3)sc3ccc(OC)cc23)c1` [Example A.11, 3-(3-Ethyl-phenoxy)-5-Methoxy-benzo[b]thiophene-2-carboxylic acid (2H-tetrazol-5-yl)-amide], for which the pIC50 was 6.80.

Turning to `COc1ccc2sc(C(=O)Nc3nn[nH]n3)c(Oc3cccc(N4CCOCC4)c3)c2c1` [Example A.12, 5-Methoxy-3-(3-morpholin-4-yl-phenoxy)-benzo[b]thiophene-2-carboxylic acid (2H-tetrazol-5-yl)-amide], the pIC50 is 6.31.

For `COc1ccc2sc(C(=O)Nc3nn[nH]n3)c(Oc3cccc(C(C)C)c3)c2c1` [Example A.13, 3-(3-Isopropyl-phenoxy)-5-Methoxy-benzo[b]thiophene-2-carboxylic acid (2H-tetrazol-5-yl)-amide], the pIC50 was 7.00.

Regarding `COc1ccc2sc(C(=O)Nc3nn[nH]n3)c(Oc3cc(C)cc(C(C)C)c3)c2c1` [Example A.14, 3-(3-Isopropyl-5-methyl-phenoxy)-5-Methoxy-benzo[b]thiophene-2-carboxylic acid (2H-tetrazol-5-yl)-amide], the negative logarithm of the IC50 (pIC50) was 6.57.

As to `CCc1ccccc1Oc1c(C(=O)Nc2nn[nH]n2)sc2ccc(OC)cc12` [Example A.15, 3-(2-Ethyl-phenoxy)-5-Methoxy-benzo[b]thiophene-2-carboxylic acid (2H-tetrazol-5-yl)-amide], the negative logarithm of the IC50 (pIC50) was 6.92.

On to `COc1ccc2sc(C(=O)Nc3nn[nH]n3)c(Oc3ccc(C4CCCCC4)cc3)c2c1` [Example A.16, 3-(4-cyclohexyl-phenoxy)-5-Methoxy-benzo[b]thiophene-2-carboxylic acid (2H-tetrazol-5-yl)-amide], for which the pIC50 was 7.59.

On to `COc1cc2c(Oc3ccccc3)c(C(=O)Nc3nn[nH]n3)sc2cc1C` [Example B.1, 5-Methoxy-6-methyl-3-phenoxy-benzo[b]thiophene-2-carboxylic acid (2H-tetrazol-5-yl)-amide], for which the pIC50 was 7.57.

Turning to `CCc1cccc(Oc2c(C(=O)Nc3nn[nH]n3)sc3cc(C)c(OC)cc23)c1` [Example B.2, 3-(3-Ethyl-phenoxy)-5-Methoxy-6-methyl-benzo[b]thiophene-2-carboxylic acid (2H-tetrazol-5-yl)-amide], the pIC50 is 7.74.

Consider `COc1cc2c(Oc3ccc4ccccc4c3)c(C(=O)Nc3nn[nH]n3)sc2cc1C` [Example B.3, 5-Methoxy-6-methyl-3-(naphthalene-2-yloxy)-benzo[b]thiophene-2-carboxylic acid (2H-tetrazol-5-yl)-amide], for which the pIC50 is 7.10.

As to `COc1cc2c(Oc3ccc(C4CCCCC4)cc3)c(C(=O)Nc3nn[nH]n3)sc2cc1C` [Example B.4, 3-(4-Cyclohexyl-phenoxy)-5-methoxy-6-methyl-benzo[b]thiophene-2-carboxylic acid (2H-tetrazol-5-yl)-amide], the pIC50 is 7.43.

On to `COc1cc2c(Oc3ccc4cc(Br)ccc4c3)c(C(=O)Nc3nn[nH]n3)sc2cc1C` [Example B.5, 3-(6-Bromo-naphthalen-2-yloxy)-5-methoxy-6-methyl-benzo[b]thiophene-2-carboxylic acid (2H-tetrazol-5-yl)-amide], for which the pIC50 was 6.28.

`CCOC(=O)Cc1ccc(Oc2c(C(=O)Nc3nn[nH]n3)sc3cc(C)c(OC)cc23)cc1` [Example B.6, {4-[5-Methoxy-6-methyl-2-(2H-tetrazol-5-ylcarbamoyl)-benzo[b]thiophene-3-yloxy]-phenyl}-acetic acid ethyl ester]: the pIC50 is 7.92.

As for `COc1cc2c(Oc3ccc(CC(=O)N4CCCCC4)cc3)c(C(=O)Nc3nn[nH]n3)sc2cc1C` [Example B.7, 5-Methoxy-6-methyl-3-[4-(2-oxo-2-piperidin-1-yl-ethyl)-phenoxy]-benzo[b]thiophene-2-carboxylic acid (2H-tetrazol-5-yl)-amide], the pIC50 was 7.55.

Consider `COc1cc2c(Oc3ccc(CCC(=O)N4CCCCC4)cc3)c(C(=O)Nc3nn[nH]n3)sc2cc1C` [Example B.8, 5-Methoxy-6-methyl-3-[4-(3-oxo-3-piperidin-1-yl-propyl)-phenoxy]-benzo[b]thiophene-2-carboxylic acid (2H-tetrazol-5-yl)-amide], for which the pIC50 is 7.48.

Turning to `COc1cc2c(Oc3cccc(C4CCCCC4)c3)c(C(=O)Nc3nn[nH]n3)sc2cc1C` [Example B.9, 3-(3-Cyclohexyl-phenoxy)-5-methoxy-6-methyl-benzo[b]thiophene-2-carboxylic acid (2H-tetrazol-5-yl)-amide], the pIC50 was 7.20.

For `COc1cc2c(Oc3ccc(CCBr)cc3)c(C(=O)Nc3nn[nH]n3)sc2cc1C` [Example B.10, 3-[4-(2-Bromo-ethyl)-phenoxy]-5-methoxy-6-methyl-benzo[b]thiophene-2-carboxylic acid (2H-tetrazol-5-yl)-amide], the pIC50 is 7.82.

`COc1cc2c(Oc3ccc4c(c3)CCCC4)c(C(=O)Nc3nn[nH]n3)sc2cc1C` [Example B.11, 5-Methoxy-6-methyl-3-(5,6,7,8-tetrahydro-naphthalen-2yloxy)-benzo[b]thiophene-2-carboxylic acid (2H-tetrazol-5-yl)-amide]: the pIC50 was 7.07.

Turning to `COc1cc2c(Oc3ccc(C(C)C)cc3)c(C(=O)Nc3nn[nH]n3)sc2cc1C` [Example B.12, 3-(4-Isopropyl-phenoxy)-5-methoxy-6-methyl-benzo[b]thiophene-2-carboxylic acid (2H-tetrazol-5-yl)-amide], the pIC50 is 7.77.

On to `CCCCc1ccc(Oc2c(C(=O)Nc3nn[nH]n3)sc3cc(C)c(OC)cc23)cc1` [Example B.13, 3-(4-Butyl-phenoxy)-5-methoxy-6-methyl-benzo[b]thiophene-2-carboxylic acid (2H-tetrazol-5-yl)-amide], for which the pIC50 was 7.51.

On to `CCCCCCOc1ccc(Oc2c(C(=O)Nc3nn[nH]n3)sc3cc(C)c(OC)cc23)cc1` [Example B.14, 3-(4-Hexyloxy-phenoxy)-5-methoxy-6-methyl-benzo[b]thiophene-2-carboxylic acid (2H-tetrazol-5-yl)-amide], for which the negative logarithm of the IC50 (pIC50) is 6.44.

In the case of `COc1cc2c(Oc3ccc(OCc4ccccc4)cc3)c(C(=O)Nc3nn[nH]n3)sc2cc1C` [Example B.15, 3-(4-Benzyloxy-phenoxy)-5-methoxy-6-methyl-benzo[b]thiophene-2-carboxylic acid (2H-tetrazol-5-yl)-amide], the pIC50 is 7.12.

`COc1cc2c(Oc3ccc(OCC4CCCCC4)cc3)c(C(=O)Nc3nn[nH]n3)sc2cc1C` [Example B.16, 3-(4-Cyclohexylmethoxy-phenoxy)-5-methoxy-6-methyl-benzo[b]thiophene-2-carboxylic acid (2H-tetrazol-5-yl)-amide]: the pIC50 was 6.90.

For `COc1cc2c(Oc3ccc(OC4CCCC4)cc3)c(C(=O)Nc3nn[nH]n3)sc2cc1C` [Example B.17, 3-(4-Cyclopentyloxy-phenoxy)-5-methoxy-6-methyl-benzo[b]thiophene-2-carboxylic acid (2H-tetrazol-5-yl)-amide], the negative-log IC50 (pIC50) is 8.40.
